In PMC7651685 (Psychopharmacology, 2020):
Where “and” joins values, the source holds several entries; their conditions need not be identical. Equal entries are not always repeated. Where two headings read alike, the source gives them in different places.

Key:
[1] = tested on: plasma protein; details: cited from earlier work
[2] = Tolerability and vital signs after i.v. administration; format: in vivo, rhesus macaques
Protocol: PET experiments within an animal were spaced at least 2 weeks apart to allow recovery from anesthesia. Animals were fasted for 18–24 h prior to each PET scan experiment. At 2–2.5 h before radiotracer injection, the animal was anesthetized with ketamine (10–15 mg/kg) and glycopyrrolate 0.01 mg/kg i.m., transferred to the PET camera, and intubated with an endotracheal tube for continued anesthesia with 2.0–2.5% isoflurane administered through a rebreathing circuit. An intravenous line was placed and used for injection of radiotracer and administration of the drug. A heated water blanket was used to maintain normal body temperature (37 °C). Vital signs, including heart rate, blood pressure, respiration rate, oxygen saturation, and body temperature, were monitored approximately every 1 to 15 min during the study (data not shown).
Animals tolerated i.v. administration of DAS or MPH at all doses examined.

[3] = Plasma levels of DAS or MPH during the displacement studies; format: in vivo, rhesus macaques (Macaca mulatta)
Protocol: Venous blood samples (1 ml) were collected during the respective bolus and 4-step infusion displacement studies to measure the plasma levels of either DAS or MPH. Blood samples were collected in K3 EDTA vials, processed for plasma, frozen, and stored at − 20 °C until required for HPLC analysis of either DAS or MPH levels.

[4] = tested on: DAT; details: ref DeLorenzo et al. [2011], cited from earlier work
[5] = tested on: dopamine transporters (DAT); experiment: [18F]-FE-PE2I PET displacement: DAT occupancy, displacement half-time and brain entry (modified GRTM); format: in vivo, rhesus macaques (Macaca mulatta); details: for Brain entry time, Caudate / Brain entry time, Putamen / Brain entry time, Mean: modified GRTM; for Brain entry time, Mean: mean over animals and regions; for Percent maximum displacement (= % DAT occupancy), Caudate\Putamen mean, Mean ± SD: group mean of four animals
Protocol: Two male and two female rhesus macaques (Macaca mulatta) housed at the Yale University School of Medicine (New Haven, CT) were used for the [^18F]-FE-PE2I imaging. In all experiments, [^18F]-FE-PE2I was administered as a bolus plus constant infusion (Kbol from 168 to 216 min; total radioactivity = 162 ± 27 MBq) over 4 h to establish steady-state DAT binding. Bolus/infusion delivery parameters (i.e., Kbol) for [^18F]-FE-PE2I for each monkey were determined from baseline [^18F]-FE-PE2I scans that utilized single bolus intravenous injections of the radiotracer (Carson et al. [1993]). Identical procedures were used for list-mode image acquisition with a Siemens Focus 220 PET scanner for all DAT brain studies. The dynamic PET imaging series were reconstructed into 57 frames (6 × 0.5 min, 3 × 1 min, 2 × 2 min, and 46 × 5 min) using filtered back projection with standard corrections for random, scatter, and attenuation provided by the camera manufacturer.
At 2 h into the [^18F]-FE-PE2I scan, under tracer steady-state conditions, DAS or MPH was administered i.v. either as a 3 min i.v. bolus or as a bolus plus 4-step infusion over 40 min (four 10-min steps). The drug bolus experiments were carried out in all four rhesus macaques, each receiving DAS at 0.2 and 0.1 mg/kg and MPH at 0.5 and 0.1 mg/kg. The drug bolus plus 4-step infusion experiments were conducted in two rhesus macaques, each receiving DAS bolus injection over 30 s followed by a 4-step infusion over 40 min (four 10-min steps, 1.55, 1.45, 1.4, 1.3 mg) and MPH bolus injection over 30 s followed by an infusion over 40 min (four 10-min steps, 1.15, 1, 0.85, 0.75 mg).
Reconstructed dynamic PET images were transferred and analyzed using the image processing software package PMOD 3.6 (PMOD Technologies, Zurich, Switzerland). The PET images were normalized to an MR rhesus brain template (Rohlfing et al. [2012]) and a region of interest (ROI) atlas including the caudate nucleus, putamen, and cerebellar cortex was applied. Average activity concentration (kBq/cc) within each ROI was determined and time-activity curves (TAC) representing the regional brain activity concentration over time were generated. TACs were additionally expressed in SUV units (g/ml) by normalizing by the weight of the animal and the injected dose.
Reductions in radiotracer binding following administration of DAS or MPH were used to determine DAT occupancy while reductions in radiotracer binding over time were used to estimate brain entry and binding rates. The displacement half-time is defined as the time it takes from drug administration until 50% of maximal tracer displacement is achieved. Tracer displacement half-times were estimated using average uptake levels from the baseline and displacement experiments and expressing the change in standardized uptake values (SUV) units as a fraction (normalized) of the observed SUV difference at the end of the experiment. Normalized SUV values for caudate and putamen respectively were plotted against time for each dose of DAS and MPH respectively to estimate the drug displacement half-time.
Brain entry of DAS and MPH was determined by analyzing the [^18F]-FE-PE2I TACs in the putamen and caudate nucleus using a kinetic model using the cerebellar cortex as a reference region. The kinetic model is based on the generalized reference tissue model (GRTM; Votaw et al. [2002]) and a recent report of brain entry and binding rates measurement (Nicolas et al. [2016]). […] The half-life of the brain entry and binding of the drug was estimated as ln(2)/α. The kinetic model employs 5 parameters: R1, BPND, r, α, and k2′ where R1 is the relative tracer influx rate constant and k2′ is the reference tissue tracer efflux rate constant. The maximum occupancy was constrained to the measured displacement, while k2′ and α were constrained to a common value across the putamen and caudate nucleus.

[6] = DAS 0.1 mg/kg i.v. 3 min bolus, individual animals A-D
[7] = DAS 0.2 mg/kg i.v. 3 min bolus, individual animals A-D
[8] = DAS 6.0 mg, bolus plus 4-step infusion over 40 min, individual animals A, B
[9] = DAS 6.0 mg, bolus plus 4-step infusion over 40 min, mean of two animals
[10] = 0.1 mg/kg DAS, bolus administration, individual animals A-D
[11] = 0.2 mg/kg DAS, bolus administration, individual animals A-D
[12] = 6 mg DAS, bolus + 4 step infusion, individual animals A, B

N[C@@H]1CC[C@@H](c2ccc(Cl)c(Cl)c2)c2ccccc21 [DAS, (1R,4S)-4-(3,4-dichlorophenyl)-1,2,3,4-tetra-hydronaphthalen-1-amine]
Plasma protein binding ([1]; Data-on-file, ref Sunovion report 360–455): ~ 97%
Plasma protein binding (fraction) ([1]; as fraction, Sunovion report 360–455 (DAS)): ~ 0.97
Changes in heart rate, respiratory rate, blood pressure, oxygen saturation and temperature compared with baseline ([2]; after i.v. administration, data not shown): No changes outside physiologically accepted limits
Tolerability of i.v. administration ([2]; all doses examined): tolerated
Cmax [3, 6]: 87.9 ng/mL and 25.9 ng/mL and 102 ng/mL and 54.6 ng/mL
Cmax [3, 7]: 213 ng/mL and 123 ng/mL
Average plasma (infusion period) [3, 8]: 34.86 ng/mL and 32.38 ng/mL
Average plasma (infusion period), Mean [3, 9]: 33.62 ng/mL
Cmax ([3]; rhesus monkey, plasma, iv, 0.1 mg/kg, DAS 0.1 mg/kg i.v. 3 min bolus, group mean, read-out: Cmax, Mean ± SD): 71.9 ± 23.4 ng/mL
Cmax ([3]; rhesus monkey, plasma, iv, 0.2 mg/kg, DAS 0.2 mg/kg i.v. 3 min bolus, group mean, read-out: Cmax, Mean ± SD): 175 ± 26.9 ng/mL
Cmax ([3]; rhesus monkey, plasma, iv, 0.2 mg/kg, DAS 0.2 mg/kg i.v. 3 min bolus, individual animals A-D, read-out: Cmax): 190 ng/mL
Reported human DAT RO50 ([4]; human, Hopkins et al. [2017]): 4.5 to 6 ng/mL
DAT occupancy OC50 [4]: 4 ng/mL
Averaged displacement half-time (between caudate and putamen) ([5]; 0.1 mg/kg DAS i.v. bolus): 40 min
Brain entry time, Caudate [5, 10]: 18.91 min and 27.13 min and 25.06 min and 19.23 min
Brain entry time, Putamen [5, 10]: 15.35 min and 18.83 min and 33.22 min and 19.5 min
Brain entry time, Mean ([5]; 0.1 mg/kg DAS, bolus administration): 22 min and 22.15 ± 5.85 min and 22.15 min
Averaged displacement half-time (between caudate and putamen) ([5]; 0.2 mg/kg DAS i.v. bolus): 31 min
Brain entry time, Caudate [5, 11]: 19.90 min and 19.65 min and 12.09 min and 13.12 min
Brain entry time, Putamen [5, 11]: 11.47 min and 17.71 min and 12.60 min and 16.03 min
Brain entry time, Mean ([5]; 0.2 mg/kg DAS, bolus administration): 15 min and 15.32 ± 3.45 min and 15.32 min
Brain entry time, Caudate [5, 12]: 16.07 min and 16.34 min
Brain entry time, Putamen [5, 12]: 16.33 min and 18.57 min
Brain entry time, Mean ([5]; 6 mg DAS, bolus + 4 step infusion): 16.83 min
Percent maximum displacement (= % DAT occupancy), Caudate\Putamen mean, Mean ± SD ([5]; DAS 0.1 mg/kg i.v. 3 min bolus): 54% and 54.48 ± 10.04%
Percent maximum displacement (= % DAT occupancy), Caudate nucleus [5, 6]: 56.1% and 49.9% and 40.8% and 53.4%
Percent maximum displacement (= % DAT occupancy), Caudate\Putamen mean [5, 6]: 61.2% and 52.5% and 41.1% and 63.1%
Percent maximum displacement (= % DAT occupancy), Putamen [5, 6]: 66.3% and 55.0% and 41.5% and 72.8%
Percent maximum displacement (= % DAT occupancy), Caudate\Putamen mean, Mean ± SD ([5]; DAS 0.2 mg/kg i.v. 3 min bolus): 68% and 68.13 ± 10.30%
Percent maximum displacement (= % DAT occupancy), Caudate nucleus [5, 7]: 64.8% and 67.9% and 70.1% and 50.7%
Percent maximum displacement (= % DAT occupancy), Caudate\Putamen mean [5, 7]: 76% and 72.5% and 71% and 53%
Percent maximum displacement (= % DAT occupancy), Putamen [5, 7]: 87.3% and 77.1% and 72% and 55.3%
Percent maximum displacement (= % DAT occupancy), Caudate nucleus [5, 8]: 83.7% and 82.0%
Percent maximum displacement (= % DAT occupancy), Caudate\Putamen mean [5, 8]: 81.6% and 85.6% and 81.7%
Percent maximum displacement (= % DAT occupancy), Putamen [5, 8]: 87.4% and 81.3%
Percent maximum displacement (= % DAT occupancy), Caudate\putamen mean, Mean [5, 9]: 83.6%
Brain entry / DAT occupancy rate slower than MPH ([5]; i.v. administration, DAS relative to MPH): ~ 7 fold and 5-11 fold
DAT RO50 from this study ([5]; rhesus monkey, plasma level): 3.5 ng/mL
